The term IC50 denotes the concentration needed to halve the response being measured. A higher IC50 goes with weaker potency.

This test has as its target T1, Polyphenol oxidase 1 (White button mushroom, UniProt Q00024).
T1 sequence (Q00024 whole entry): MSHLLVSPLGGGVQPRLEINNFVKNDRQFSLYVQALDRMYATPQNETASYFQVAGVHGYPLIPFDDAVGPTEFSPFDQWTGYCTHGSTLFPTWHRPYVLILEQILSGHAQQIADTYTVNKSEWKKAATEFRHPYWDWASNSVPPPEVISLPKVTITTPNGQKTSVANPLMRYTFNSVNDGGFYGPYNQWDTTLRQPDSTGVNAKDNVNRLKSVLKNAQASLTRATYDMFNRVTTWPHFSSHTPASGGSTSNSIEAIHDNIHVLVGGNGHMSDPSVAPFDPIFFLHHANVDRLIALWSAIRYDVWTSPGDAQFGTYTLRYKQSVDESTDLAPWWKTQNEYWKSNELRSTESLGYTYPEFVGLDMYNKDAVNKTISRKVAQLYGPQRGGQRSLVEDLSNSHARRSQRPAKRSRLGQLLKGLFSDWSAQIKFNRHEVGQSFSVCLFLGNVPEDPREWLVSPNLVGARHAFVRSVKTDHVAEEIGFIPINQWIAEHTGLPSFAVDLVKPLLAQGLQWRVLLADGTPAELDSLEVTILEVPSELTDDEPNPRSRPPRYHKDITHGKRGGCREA
In words: In Vitro Tyrosinase Inhibition Assay. Particulars: pH 6.8; 25 °C. The procedure:
Tyrosinase inhibition assays were performed in a 96-well microplate format using the SpectraMax 340 microplate reader (Molecular Devices, CA) according to the method developed by Hearing [Khan et al., Pure Appl. […] First the samples were screened for the o-diphenolase inhibitory activity of mushroom tyrosinase (Lyophilised, ≥2000 units/mg, Sigma, […], USA) using L-3,4-dihydroxyphenylalanine (L-DOPA) (Sigma) as substrate. All the active samples from the preliminary screening were subjected to half maximal inhibitory concentration (IC50) studies. The samples were dissolved in methanol/DMSO to a final concentration of 0.5%. […] Then the L-DOPA (0.5 mM) was added to the reaction mixture and the reaction was monitored by measuring the change in absorbance at 475 nm (at 37°C) due to the formation of the DOPA chrome for 10 min.

Regarding `N[C@@H](Cn1ccc(=O)c(O)c1)C(=O)O`, half-maximal inhibition (IC50) was put at 3.68 µM. `CC(C)=CCOC(=O)c1ccc(O)cc1` [3-Methyl-2-butenyl-4-hydroxybenzoate (2)]: it took 14.8 µM to reach half-maximal inhibition (IC50).

`CC(C)=CCOC(=O)c1ccccc1` [3-Methyl-2-butenylbenzoate (1)] had an IC50 of 83.4 µM. To `O=C(Oc1ccc([N+](=O)[O-])cc1)c1ccc([N+](=O)[O-])cc1C(F)(F)F` [4-Nitro-phenyl-(4-nitro-2-trifluoromethyl)-benzoate (6)] belongs 29.7 µM; to `O=C(NCCBr)c1cc([N+](=O)[O-])cc([N+](=O)[O-])c1` [N-(2-Bromo-ethyl)-3,5-dinitro-benzamide (8)], 3.08 µM. To `O=C(NCCO)c1cc([N+](=O)[O-])cc([N+](=O)[O-])c1` [N-(2-Hydroxy-ethyl)-3,5-dinitro-benzamide (7)] belongs 1.09 µM; to `CCNC(=O)c1ccccc1` [N-Ethyl-benzamide (10)], 11.8 µM; to `Cc1ccc(C(=O)N(C)O)cc1` [N-Hydroxy-4,N-dimethyl-benzamide (9)], 2.09 µM.

The values are drawn from BindingDB's records for doi:10.3109/14756366.2010.482529 (Yonsei University, 2010).
